Measurements from patent US20200079766A1, “MONOCYCLIC OGA INHIBITOR COMPOUNDS” (Janssen Pharmaceutica NV, priority 2016, published 2020).

Assays:
[1] = molecular target: T1, recombinant human Meningioma Expressed Antigen 5 (MGEA5), also referred to as O-GlcNAcase (OGA) (Homo sapiens, UniProt O60502); assay: OGA biochemical assay: inhibition of FM-GlcNAc hydrolysis, fluorescence; protocol A (10 nM OGA, 1 h) or protocol B (2 nM OGA, 6 h); settings: Enzymatic protocol B (2 nM OGA, 6 h); for IC50: read-out: Enzymatic hOGA, pIC50 (converted)
T1 construct: Full length OGA enzyme was purchased at OriGene (cat # TP322411); purchased OriGene TP322411
T1 sequence (O60502 1-916): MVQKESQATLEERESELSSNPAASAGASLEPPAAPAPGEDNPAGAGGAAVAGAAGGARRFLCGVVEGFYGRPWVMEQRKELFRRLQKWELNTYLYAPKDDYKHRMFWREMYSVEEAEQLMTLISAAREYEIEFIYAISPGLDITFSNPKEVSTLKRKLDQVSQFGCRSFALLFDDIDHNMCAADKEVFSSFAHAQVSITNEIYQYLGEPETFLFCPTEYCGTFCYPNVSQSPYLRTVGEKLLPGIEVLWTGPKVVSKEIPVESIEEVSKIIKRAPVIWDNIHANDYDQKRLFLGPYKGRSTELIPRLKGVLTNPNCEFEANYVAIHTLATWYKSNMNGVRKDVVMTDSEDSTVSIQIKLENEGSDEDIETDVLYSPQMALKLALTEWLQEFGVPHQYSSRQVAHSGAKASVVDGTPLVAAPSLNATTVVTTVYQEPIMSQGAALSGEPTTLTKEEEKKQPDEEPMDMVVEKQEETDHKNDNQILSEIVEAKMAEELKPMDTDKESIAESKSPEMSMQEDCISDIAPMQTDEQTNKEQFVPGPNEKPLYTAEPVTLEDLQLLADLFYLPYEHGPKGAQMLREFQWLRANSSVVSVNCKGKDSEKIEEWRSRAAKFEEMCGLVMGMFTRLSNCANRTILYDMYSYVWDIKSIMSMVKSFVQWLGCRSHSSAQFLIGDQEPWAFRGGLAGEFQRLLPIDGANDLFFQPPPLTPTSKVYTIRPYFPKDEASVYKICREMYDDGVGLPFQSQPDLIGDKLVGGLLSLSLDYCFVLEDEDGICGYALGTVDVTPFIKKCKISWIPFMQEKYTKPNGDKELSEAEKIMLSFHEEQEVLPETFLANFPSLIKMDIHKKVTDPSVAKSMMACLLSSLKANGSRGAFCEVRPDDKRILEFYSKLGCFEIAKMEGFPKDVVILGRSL
Source text: The assay is based on the inhibition of the hydrolysis of fluorescein mono-3-D-N-Acetyl-Glucosamine (FM-GlcNAc) (Mariappa et al. 2015, Biochem J 470:255) by the recombinant human Meningioma Expressed Antigen 5 (MGEA5), also referred to as O-GlcNAcase (OGA). The hydrolysis FM-GlcNAc (Marker Gene technologies, cat # M1485) results in the formation of ß-D-N-glucosamineacetate and fluorescein. The fluorescence of the latter can be measured at excitation wavelength 485 nm and emission wavelength 538 nm. An increase in enzyme activity results in an increase in fluorescence signal. Full length OGA enzyme was purchased at OriGene (cat # TP322411). The enzyme was stored in 25 mM Tris.HCl, pH 7.3, 100 mM glycine, 10% glycerol at −20° C. Thiamet G and GlcNAcStatin were tested as reference compounds (Yuzwa et al. 2008 Nature Chemical Biology 4:483; Yuzwa et al. 2012 Nature Chemical Biology 8:393). The assay was performed in 200 mM Citrate/phosphate buffer supplemented with 0.005% Tween-20. 35.6 g Na2HPO42H2O (Sigma, # C0759) were dissolved in 1 L water to obtain a 200 mM solution. 19.2 g citric acid (Merck, #1.06580) was dissolved in 1 L water to obtain a 100 mM solution. pH of the sodiumphosphate solution was adjusted with the citric acid solution to 7.2. The buffer to stop the reaction consists of a 500 mM Carbonate buffer, pH 11.0. 734 mg
FM-GlcNAc were dissolved in 5.48 mL DMSO to obtain a 250 mM solution and was stored at −20° C. OGA was used at a 10 nM (protocol A) or 2 nM (protocol B) concentration and FM-GlcNAc at a 100 uM final concentration. Dilutions were prepared in assay buffer.
50 nl of a compound dissolved in DMSO was dispensed on Black Proxiplate™ 384 Plus Assay plates (Perkin Elmer, #6008269) and 3 μl fl-OGA enzyme mix added subsequently. Plates were pre-incubated for 60 min at room temperature and then 2 μl FM-GlcNAc substrate mix added. […] Plates were briefly centrifuged for 1 min at 1000 rpm and incubate at room temperature for 1 h (10 nM OGA, protocol A) or 6 h (2 nM OGA, protocol B). To stop the reaction 5 μl STOP buffer were added and plates centrifuge again 1 min at 1000 rpm. Fluorescence was quantified in the Thermo Scientific Fluoroskan Ascent or the PerkinElmer EnVision with excitation wavelength 485 nm and emission wavelength 538 nm.
For analysis a best-fit curve is fitted by a minimum sum of squares method. From this an IC50 value and Hill coefficient was obtained. High control (no inhibitor) and low control (saturating concentrations of standard inhibitor) were used to define the minimum and maximum values.

[2] = test system: OGA in HEK293 cells inducible for P301L mutant human Tau (isoform 2N4R); assay: OGA cellular assay: immunocytochemical detection of O-GlcNAcylated proteins (CTD110.6 antibody) after 6 h incubation; assay type: cell-based; settings: for Cellular Emax (%) / Emax: maximum = Thiamet G 200 uM; for Emax / EC50: Homo sapiens, HEK293, 6 h; for EC50: read-out: Cellular hOGA, pEC50 (converted)
Protocol: HEK293 cells inducible for P301L mutant human Tau (isoform 2N4R) were established at Janssen. Thiamet-G was used for both plate validation (high control) and as reference compound (reference EC50 assay validation). OGA inhibition is evaluated through the immunocytochemical (ICC) detection of O-GlcNAcylated proteins by the use of a monoclonal antibody (CTD110.6; Cell Signaling, #9875) detecting O-GlcNAcylated residues as previoulsy described (Dorfmueller et al. 2010 Chemistry & biology, 17:1250). Inhibition of OGA will result in an increase of O-GlcNAcylated protein levels resulting in an increased signal in the experiment. Cell nuclei are stained with Hoechst to give a cell culture quality control and a rough estimate of immediate compounds toxicity, if any. ICC pictures are imaged with a Perkin Elmer Opera Phenix plate microscope and quantified with the provided software Perkin Elmer Harmony 4.1.
Cells were propagated in DMEM high Glucose (Sigma, # D5796) following standard procedures. 2 days before the cell assay cells are split, counted and seeded in Poly-D-Lysine (PDL) coated 96-wells (Greiner, #655946) plate at a cell density of 12,000 cells per cm^2 (4,000 cells per well) in 100 μl of Assay Medium (Low Glucose medium is used to reduce basal levels of GlcNAcylation) (Park et al. 2014 The Journal of biological chemistry 289:13519). At the day of compound test medium from assay plates was removed and replenished with 90 μl of fresh Assay Medium. 10 μl of compounds at a 10 fold final concentration were added to the wells. Plates were centrifuged shortly before incubation in the cell incubator for 6 hours. DMSO concentration was set to 0.2%. Medium is discarded by applying vacuum. For staining of cells medium was removed and cells washed once with 100 μl D-PBS (Sigma, # D8537). From next step onwards unless other stated assay volume was always 50 μl and incubation was performed without agitation and at room temperature. Cells were fixed in 50 μl of a 4% paraformaldehyde (PFA, Alpha aesar, #043368) PBS solution for 15 minutes at room temperature. […] Before analysis samples were washed 2 times manually for 5 minutes in ICC base buffer.
Imaging is performed using Perkin Elmer Phenix Opera using a water 20× objective and recording 9 fields per well. Intensity readout at 488 nm is used as a measure of O-GlcNAcylation level of total proteins in wells. To assess potential toxicity of compounds nuclei were counted using the Hoechst staining. IC50-values are calculated using parametric non-linear regression model fitting. As a maximum inhibition Thiamet G at a 200 uM concentration is present on each plate. In addition, a concentration response of Thiamet G is calculated on each plate.

| Enzymatic Emax (%) [1] | Enzymatic hOGA; pIC50 [1] | Emax [1] | IC50 [1] | SMILES | Cellular hOGA; pEC50 [2] | Cellular Emax (%) [2] | Emax [2] | EC50 [2] |
| --- | --- | --- | --- | --- | --- | --- | --- | --- |
| 102.9% | 7.34 |  |  | CC(=O)Nc1ncc(CN2CCC(Cc3cnc(C(F)(F)F)cn3)C2)s1 (centres unmarked) [compound 64] | 7.04 | 89.3% |  |  |
|  |  | 101% | 5.5 nM | CC(=O)Nc1ncc(CN2CCCC(Cc3cc(C)nc(C)n3)C2)s1 (centres unmarked) [compound 24] |  |  | 111% | 32.4 nM |
|  |  | 101% | 8.71 nM | CC(=O)Nc1ncc(CN2CC[C@H](Cc3cc(C)cc(C)n3)C2)s1 [compound 85] |  |  | 86.9% | 46.8 nM |
|  |  | 101% | 10 nM | Cc1cc(CC2CCCN(C(C)c3ccc4nccnc4c3)C2)cc(C)n1 (racemic) [compound 139] |  |  | 75% | 170 nM |
|  |  | 101% | 21.9 nM | CC(=O)Nc1ncc(CN2CC[C@H](Cc3ccc(C#N)cn3)C2)s1 [compound 46] |  |  | 85.9% | 47.9 nM |
|  |  | 103% | 20 nM | CC(=O)Nc1ncc(CN2CC[C@H](Cc3cc(C)nc(F)c3)C2)s1 [compound 110] |  |  | 91.3% | 24.5 nM |
|  |  | 100% | 26.3 nM | CC(=O)Nc1ncc(CN2CCC(COc3cc(C)nc(C)c3)C2)s1 (centres unmarked) [compound 89] |  |  | 72.4% | 81.3 nM |
|  |  | 100% | 12 nM | COc1cnc(C[C@H]2CCN(Cc3cnc(NC(C)=O)s3)C2)c(F)c1 [compound 48] |  |  | 83% | 66.1 nM |
|  |  | 97.4% | 43.7 nM | Cc1cc(NC2CCCN(C(C)c3ccc4nccnc4c3)C2)cc(C)n1 (racemic) [compound 156] |  |  | 89% | 468 nM |
| 101.2% | 7.71 |  |  | CC(=O)Nc1ncc(CN2CC[C@H](Cc3ccc(C)nc3)C2)s1 [compound 61] | 7.22 | 96.3% |  |  |
|  |  | 102% | 8.71 nM | CC(=O)Nc1ncc(CN2CCC[C@@H](Cc3cc(C)nc(C)c3)C2)s1 [compound 29] |  |  | 108% | 56.2 nM |
| 101% | 8.01 |  |  | CC(=O)Nc1ncc(CN2CC[C@H](Cc3ccncc3C)C2)s1 [compound 74] | 7.34 | 115.8% |  |  |
|  |  | 102% | 4.47 nM | CC(=O)Nc1ncc(CN2CC[C@@H](Cc3cc(C)nc(C)c3)C2)s1 [compound 113] |  |  | 105% | 11.2 nM |
|  |  | 101% | 26.9 nM | CC(=O)Nc1ncc(CN2CC[C@H](Cc3ncccc3C#N)C2)s1 [compound 45] |  |  | 80.1% | 219 nM |
| 99.4% | 7.05 |  |  | CC(=O)Nc1ncc(CN2CCC(Cc3cc(C(F)(F)F)ccn3)C2)s1 (centres unmarked) [compound 53] | 6.76 | 85.6% |  |  |
|  |  | 102% | 11 nM | Cc1cc(CC2CCCN(C(C)c3ccc4c(c3)OCO4)C2)cc(C)n1 (racemic) [compound 141] |  |  | 83.5% | 87.1 nM |
| 100.9% | 7.70 |  |  | COc1nccnc1CC1CCN(Cc2cnc(NC(C)=O)s2)C1 (centres unmarked) [compound 67] | 6.92 | 84.5% |  |  |
|  |  | 99.6% | 12 nM | CC(=O)Nc1ncc(CN2CC[C@H](Cc3ccc(C)nc3C)C2)s1 [compound 71] |  |  | 94.8% | 36.3 nM |
|  |  | 102% | 3.24 nM | CC(=O)Nc1ncc(CN2CCCC(Nc3cc(C)nc(C)c3)C2)s1 (centres unmarked) [compound 31] |  |  | 90.2% | 20 nM |
|  |  | 100% | 46.8 nM | Cc1cc(CC2CCCN(C(C)c3ccc4sc(C)nc4c3)C2)cc(C)n1 (single isomer, unassigned) [compound 118] | 6.24 | 62.2% |  |  |
|  |  | 103% | 6.17 nM | CC(=O)Nc1ncc(CN2CC[C@H](Cc3cc(C)c(C)cn3)C2)s1 [compound 69] |  |  | 101% | 74.1 nM |
|  |  | 102% | 102 nM | Cc1cc(C[C@H]2CCCN(Cc3ccc4c(c3)OCCO4)C2)cc(C)n1 [compound 152] |  |  | 41.9% | > 1000 nM |
|  |  | 101% | 12.6 nM | CC(=O)Nc1ncc(CN2CC[C@@H](Cc3ncc(C)cc3C(F)(F)F)C2)s1 [compound 35] |  |  | 91.9% | 77.6 nM |
